In publication PMC7396128 (Nature medicine, 2019):

What was measured:
[1] = system: HIV-1IIIB; assay: ultrastructural analysis of HIV-1 virions by electron microscopy; type: cell-based; details: 500 nM
[2] = system: HIV-1; details: 500 nM, 12 hpi, MOI 70
[3] = system: HIV-1IIIB; type: cell-based; details: MT-4 cells
[4] = system: MT-4 cells; details: read-out: mean 50% cytotoxicity concentration, CC50
[5] = system: HIV-1YU2; assay: antiviral efficacy in HIV-1YU2-infected humanized NOG mice; type: in vivo

For `COC(=O)N[C@H](C(=O)N[C@@H](Cc1ccccc1)[C@@H](O)CN(Cc1ccc(-c2ccccn2)cc1)NC(=O)[C@@H](NC(=O)OC)C(C)(C)C)C(C)(C)C` [ATV, atazanavir], the “capsid morphology in released virions” value [1] was “predominantly contained immature Gag/Gag-Pol lattices”.

With `C[C@@H]1CCO[C@H]2Cn3cc(C(=O)NCc4ccc(F)cc4F)c(=O)c(O)c3C(=O)N12` [DTG, dolutegravir] the “effect on capsid and vDNA fluorescent signals” value [2] was “did not alter either fluorescent signal”.

With `Cc1[nH]c2ccccc2c1CC(=O)N[C@@H](Cc1ccccc1)C(=O)N(C)c1ccccc1` [PF74] the “selectivity index (CC50/EC50 ratio)” value [3] was 26, the “fold weaker antiviral potency than GS-CA1” value ([3]; HIV-1IIIB) was > 5,000 fold and the EC50 ([3]; read-out: mean EC50, HIV-1IIIB, n = 43) was 1.24 µM. The CC50 [4] was 32.2 ± 9.3 µM.

With `Cc1cc(/C=C/C#N)cc(C)c1Nc1ccnc(Nc2ccc(C#N)cc2)n1` [RPV, rilpivirine] the “treated animals with rapid emergence of drug resistance” value ([5]; 160 mg/kg every 2 weeks) was 80%, the “animals returning to baseline viremia by week 10” value ([5]; 160 mg/kg s.c. daily for 7 days then every two weeks) was 4/5 and the capsid levels [2] was 100 % of control. The vDNA [2] was 14 % of control.
